# Source: US11413278B2, “Compounds and methods for promoting stress resistance” (priority 2015, dated 2022)
# Like-named read-outs stand apart in the source and are kept apart here.
# What was measured:
# FOXO3 = test: qPCR analysis of FOXO3-regulated genes; format: cell-based, human; conditions: for fold induction at 10 µM: Homo sapiens; for K = Sestrin induction: score
# In short: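 WI-38 cells treated with compound at 10 μM for 24 h, followed by Cells-to-Ct RT-qPCR of FOXO3 target genes normalised to B2M, PPIA and GAPDH. FOXO3 or NRF2 dependence tested by prior 10 nM siRNA knockdown (36 h transfection, compound added ~24 h after replating).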
# WI-38 cells = system: WI-38 cells
# Protocol: WI-38 cells were seeded on 384-well plates for 24 hrs and then incubated with small molecules for 24 hrs. […] Images were collected on an INCell Analyzer 2000 (GE) and analyzed with the Developer software.
# human PARP1 = target: T1, human PARP1 (Homo sapiens, UniProt P09874); test: PARP inhibitor assay (HT Fluorescent Homogeneous PARP Inhibition Assay Kit); format: biochemical; conditions: score
# T1 construct: purchased Trevigen
# In short: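 Human PARP1 with NAD and activated DNA, compounds at 10 μM final, 30 min at room temperature in dark. Resazurin/diaphorase cycling mix then added for 1 hr in dark before stop buffer; fluorescent homogeneous kit read-out.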
# C. elegans = C. elegans lifespan assays (liquid and plate); format: in vivo, Caenorhabditis elegans; conditions: for ILS at 60 µM / ILS at 66 µM: Caenorhabditis elegans; for O = Life span- extending scores in worms: score scale 0 to 2, 4 to 6 independent trials; for M = Lifespan-extending scores in worms: summary score
# NRF2 = test: qPCR analysis of NRF2-regulated genes; format: cell-based, human; conditions: for fold induction at 10 µM: Homo sapiens
# In short: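 WI-38 cells treated with compound at 10 μM for 24 hrs, then processed by Cells-to-Ct for RNA isolation, RT and qPCR of NRF2-regulated genes (HMOX1, NQO1, GCLC, GSTM1). Expression normalized to B2M, PPIA and GAPDH; siRNA knockdown of FOXO3 or NRF2 (10 nM) preceded treatment in some runs.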
# [1] = 24 h, Assay 10(m), at 10 uM, qPCR, read-out: Induction of FOXO3-regulated genes: TXNIP normalized fold-change
# [2] = 10 μM, 24 hrs, WI-38 cells, qPCR, normalized to B2M, n = 4, read-out: GADD45A expression, normalized fold change (FOXO3-regulated gene)
# [3] = 10 μM, 24 hrs, WI-38 cells, qPCR, normalized to B2M, n = 4, read-out: TXNIP expression, normalized fold change (FOXO3-regulated gene)
# [4] = WI-38 cells, 10 μM, 24 hrs, n=4, qPCR normalized by B2M, read-out: DDB1 Normalized fold change
# [5] = WI-38 cells, 10 μM, 24 hrs, n=4, qPCR normalized by B2M, read-out: GADD45A Normalized fold change
# [6] = WI-38 cells, 10 μM, 24 hrs, n=4, qPCR normalized by B2M, read-out: SESN1 Normalized fold change
# [7] = fold change, qPCR, WI-38 cells, 10 μM, 24 hrs, read-out: Summary of effects on FOXO3-regulated genes: GADD45A
# [8] = fold change, qPCR, WI-38 cells, 10 μM, 24 hrs, read-out: Summary of effects on FOXO3-regulated genes: TXNIP
# [9] = qPCR, WI-38 cells, 10 μM, n=4, 24 hrs, normalized by B2M, read-out: CAT Normalized fold change
# [10] = qPCR, WI-38 cells, 10 μM, n=4, 24 hrs, normalized by B2M, read-out: SOD2 Normalized fold change
# [11] = qPCR, WI-38 cells, 10 μM, n=4, 24 hrs, normalized by B2M, read-out: TXNIP Normalized fold change
# [12] = in liquid, wild type, with FuDR, 1.0 × 10^9 bacteria/ml, read-out: relative change of mean lifespan vs control, Trial 1
# [13] = in liquid, wild type, with FuDR, 2.5 × 10^9 bacteria/ml, read-out: relative change of mean lifespan vs control, Trial 2
# [14] = on plate, CF512 temperature-sensitive sterile animals, without FuDR, 2.0 × 10^10 bacteria/ml, read-out: relative change of mean lifespan vs control, Trial 3
# [15] = Assay 2(z), 1.0 × 10^9 bacteria/ml, wild type + FuDR (2012 July), read-out: Lifespan assay in liquid
# [16] = Assay 3(aa), 2.5 × 10^9 bacteria/ml, wild type + FuDR, read-out: Lifespan assay in liquid
# [17] = Assay 4(ab), 2.0 × 10^10 bacteria/ml, CF512 worms, no FuDR, read-out: Lifespan assay on plates
# [18] = 24 h, Assay 12(o), at 10 uM, qPCR, read-out: Induction of NRF2-regulated genes: HMOX1 normalized fold-change
# [19] = rounded fold change, WI-38 cells, 10 μM, 24 hrs (RP11 for Gr-1D, RP29 for Gr-4D), read-out: Summary of effects on NRF2-regulated genes: HMOX1
# [20] = 10 μM, 24 hrs, WI-38 cells, qPCR, normalized to B2M, n = 4, read-out: HMOX1 expression, normalized fold change (NRF2-regulated gene)
# [21] = WI-38 cells, 10 μM, 24 hrs, n=4, qPCR normalized by B2M, read-out: GCLC Normalized fold change
# [22] = WI-38 cells, 10 μM, 24 hrs, n=4, qPCR normalized by B2M, read-out: GSTM1 Normalized fold change
# [23] = WI-38 cells, 10 μM, 24 hrs, n=4, qPCR normalized by B2M, read-out: HMOX1 Normalized fold change
# [24] = WI-38 cells, 10 μM, 24 hrs, n=4, qPCR normalized by B2M, read-out: NQO1 Normalized fold change
# T1 sequence (P09874 whole entry): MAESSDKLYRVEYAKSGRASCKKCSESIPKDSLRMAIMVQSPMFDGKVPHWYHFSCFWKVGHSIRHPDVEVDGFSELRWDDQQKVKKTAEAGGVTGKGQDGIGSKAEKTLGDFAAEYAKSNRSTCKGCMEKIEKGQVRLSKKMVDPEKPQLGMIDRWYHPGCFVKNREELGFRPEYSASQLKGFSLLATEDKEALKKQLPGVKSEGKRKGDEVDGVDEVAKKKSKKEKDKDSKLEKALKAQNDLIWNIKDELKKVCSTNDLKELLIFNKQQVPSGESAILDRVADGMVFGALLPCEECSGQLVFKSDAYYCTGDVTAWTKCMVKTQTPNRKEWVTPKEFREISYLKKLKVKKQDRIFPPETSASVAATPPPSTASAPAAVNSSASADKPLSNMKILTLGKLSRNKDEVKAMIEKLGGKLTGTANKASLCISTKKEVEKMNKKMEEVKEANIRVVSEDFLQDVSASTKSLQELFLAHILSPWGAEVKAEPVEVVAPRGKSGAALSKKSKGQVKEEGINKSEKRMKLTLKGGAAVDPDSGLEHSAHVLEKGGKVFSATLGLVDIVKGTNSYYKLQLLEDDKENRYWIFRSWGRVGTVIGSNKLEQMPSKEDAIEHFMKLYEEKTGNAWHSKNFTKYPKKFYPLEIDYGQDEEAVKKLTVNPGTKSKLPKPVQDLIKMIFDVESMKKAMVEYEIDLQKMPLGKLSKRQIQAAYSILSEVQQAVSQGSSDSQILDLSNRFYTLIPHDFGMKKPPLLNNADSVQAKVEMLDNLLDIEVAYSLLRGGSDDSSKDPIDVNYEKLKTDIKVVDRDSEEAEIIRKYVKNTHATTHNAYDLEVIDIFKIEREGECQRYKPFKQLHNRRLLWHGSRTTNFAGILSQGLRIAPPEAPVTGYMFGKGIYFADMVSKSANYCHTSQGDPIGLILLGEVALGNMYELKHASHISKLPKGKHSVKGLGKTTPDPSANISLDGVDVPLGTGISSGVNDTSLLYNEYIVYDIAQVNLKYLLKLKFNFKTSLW
smiles,measurement,setting,value
N=C1S/C(=C\c2cn(-c3ccccc3)nc2-c2cccs2)C(=O)N1c1nccs1 [Gr-6C],E = Potential FOXO3 Activation,FOXO3; 2-point score,0
same,fold induction at 10 µM,"FOXO3; 24 h, Assay 10(m), at 10 uM, qPCR, read-out: Induction of FOXO3-regulated genes: SESN1 normalized fold-change",1.42
same,fold induction at 10 µM,FOXO3; [1],0.57
same,fold induction at 10 µM,FOXO3; [2],2.17
same,fold induction at 10 µM,"FOXO3; 10 μM, 24 hrs, WI-38 cells, qPCR, normalized to B2M, n = 4, read-out: SESN1 expression, normalized fold change (FOXO3-regulated gene)",1.42
same,fold induction at 10 µM,FOXO3; [3],0.57
same,fold induction at 10 µM,FOXO3; [4],1.22
same,fold induction at 10 µM,FOXO3; [5],2.17
same,fold induction at 10 µM,FOXO3; [6],1.42
same,fold induction at 10 µM,FOXO3; [7],2.17
same,fold induction at 10 µM,"FOXO3; fold change, qPCR, WI-38 cells, 10 μM, 24 hrs, read-out: Summary of effects on FOXO3-regulated genes: SESN1",1.42
same,fold induction at 10 µM,FOXO3; [8],0.57
same,fold induction at 10 µM,FOXO3; [9],1.13
same,fold induction at 10 µM,FOXO3; [10],1.01
same,fold induction at 10 µM,FOXO3; [11],0.568
same,K = Sestrin induction,FOXO3,0
same,E = Potential FOXO3 Activation,FOXO3; summary score,0
same,"Percentage of propidium iodide-positive dead cells (no H2O2 stress treatment), at 10 uM","WI-38 cells; no H2O2 stress, 10 uM, negative control 0.41% ± 0.23%","0.66% ± 0.26%,"
same,L = PARP inhibition,human PARP1,0
same,ILS at 60 µM,C. elegans; [12],20.5%
same,ILS at 60 µM,C. elegans; [13],12.4%
same,ILS at 60 µM,C. elegans; [14],9.4%
same,ILS at 66 µM,C. elegans; [15],20.5%
same,ILS at 66 µM,C. elegans; [16],12.4%
same,ILS at 66 µM,C. elegans; [17],9.4%
same,Extension of C. elegans' lifespan (qualitative),"C. elegans; in at least 3 to 4 trials, group range ~10% to ~50%",could extend animal's lifespan
same,Trials with lifespan extension,C. elegans; positive of total trials,3 of 3
same,O = Life span- extending scores in worms,C. elegans,2 (2 for observed in more than 2 trials)
same,M = Lifespan-extending scores in worms,C. elegans,2 (2 for observed in more than 2 trials)
same,F = Potential NRF2 Activation,NRF2; 2-point score,0
same,fold induction at 10 µM,"NRF2; 24 h, Assay 12(o), at 10 uM, qPCR, read-out: Induction of NRF2-regulated genes: GCLC normalized fold-change",0.33
same,fold induction at 10 µM,NRF2; [18],2.09
same,fold induction at 10 µM,NRF2; [19],2.09
same,fold induction at 10 µM,"NRF2; rounded fold change, WI-38 cells, 10 μM, 24 hrs, read-out: Summary of effects on NRF2-regulated genes: GCLC",0.33
same,fold induction at 10 µM,"NRF2; 10 μM, 24 hrs, WI-38 cells, qPCR, normalized to B2M, n = 4, read-out: GCLC expression, normalized fold change (NRF2-regulated gene)",0.33
same,fold induction at 10 µM,NRF2; [20],2.09
same,fold induction at 10 µM,NRF2; [21],0.331
same,fold induction at 10 µM,NRF2; [22],0.914
same,fold induction at 10 µM,NRF2; [23],2.09
same,fold induction at 10 µM,NRF2; [24],0.87
same,F = Potential NRF2 Activation,NRF2; summary score,0
O=C(NCc1cccnc1)/C(=C\c1ccc(Br)cc1)S(=O)(=O)c1ccccc1 [Gr-7B],E = Potential FOXO3 Activation,FOXO3; 2-point score,0
same,fold induction at 10 µM,"FOXO3; 24 h, Assay 10(m), at 10 uM, qPCR, read-out: Induction of FOXO3-regulated genes: GADD45A normalized fold-change",2.07
same,fold induction at 10 µM,FOXO3; [1],0.26
same,fold induction at 10 µM,FOXO3; [2],2.07
same,fold induction at 10 µM,FOXO3; [3],0.26
same,fold induction at 10 µM,FOXO3; [4],1.31
same,fold induction at 10 µM,FOXO3; [5],2.07
same,fold induction at 10 µM,FOXO3; [6],0.952
same,fold induction at 10 µM,FOXO3; [7],2.07
same,fold induction at 10 µM,FOXO3; [8],0.26
same,fold induction at 10 µM,FOXO3; [9],1.13
same,fold induction at 10 µM,FOXO3; [10],1.33
same,fold induction at 10 µM,FOXO3; [11],0.262
same,K = Sestrin induction,FOXO3,0
same,E = Potential FOXO3 Activation,FOXO3; summary score,0
same,PI cell-death imaging without H2O2 (indicating potential toxicity),"WI-38 cells; Assay 8(k), without H2O2, at 10 uM",YES
same,PI-positive dead cells under normal conditions,"WI-38 cells; WI-38, no H2O2, control 0.4±0.2%",3.6%±0.7%
same,L = PARP inhibition,human PARP1,0
same,ILS at 60 µM,C. elegans; [12],1.3%
same,ILS at 60 µM,C. elegans; [13],3.5%
same,ILS at 60 µM,C. elegans; [14],14.9%
same,ILS at 66 µM,C. elegans; [15],1.3%
same,ILS at 66 µM,C. elegans; [16],3.5%
same,ILS at 66 µM,C. elegans; [17],14.9%
same,O = Life span- extending scores in worms,C. elegans,0
same,M = Lifespan-extending scores in worms,C. elegans,0
same,F = Potential NRF2 Activation,NRF2; 2-point score,0
same,fold induction at 10 µM,NRF2; [18],17.9
same,fold induction at 10 µM,NRF2; [19],54.1
same,fold induction at 10 µM,NRF2; [20],54.1
same,fold induction at 10 µM,NRF2; [21],1.8
same,fold induction at 10 µM,NRF2; [22],0.981
same,fold induction at 10 µM,NRF2; [23],54.2
same,fold induction at 10 µM,NRF2; [24],1.41
same,F = Potential NRF2 Activation,NRF2; summary score,0
